First: CC(C)Cn1cnc2c(N)nc3ccc(-c4ccsc4)cc3c21
Second: COCCn1c(C)nc2c(N)nc3ccccc3c21
The melting point of the first is higher: 235 to 236 °C for the first, 230 to 233 °C for the second.

Compared with `O=C1SCc2c(Cl)c(Cl)c(Cl)c(Cl)c21`, `NC(=O)c1c(C(F)(F)F)nn(-c2c(Cl)cc(C(F)(F)F)cc2Cl)c1N` is lower in melting point: 181 to 183 °C for the first, 169 to 171 °C for the second.

First: O=C(NC(=O)c1c(F)cccc1Cl)Nc1ccc(S(=O)(=O)C(F)(F)C(F)F)cc1F
Second: CCc1c(Cl)cc(C(C)(C)C)c(O)c1-c1nc2ccc(S(=O)(=O)C(F)(F)F)cc2c(=O)[nH]1
The melting point of the first is lower: 176 to 177 °C for the first, 285 to 286 °C for the second.

First: CC1(C)CCC(C)(C)c2cc(-c3cccc(-c4ccc(C(=O)O)cc4)c3O)ccc21
Second: CCOC(=O)Cn1ncc(-c2ccc(OC)cc2)c1-c1ccccc1
The melting point of the first is higher: 121 °C for the first, 81 to 84 °C for the second.

Compared with `COC(=O)CCc1ccc(-n2cc(C)n(-c3ccc(C(=N)N)cc3)c2=O)cc1`, `COc1ccc(C(=O)NCCc2ccccc2C)cc1` is lower in melting point: 95 to 100 °C for the first, 81.8 to 82.1 °C for the second.

First: COc1ccc(-c2nc(COc3ccc(CCCn4ccnc4)cc3)co2)s1
Second: O=C1NC(=O)C(Nc2ccc(CCNC[C@H](O)COc3ccc(O)cc3)cc2)S1 (stereo partly drawn)
The melting point of the first is lower: 96 to 97 °C for the first, 165 °C for the second.

First: CNn1c(C)nn(C(=O)NC(C)(C)C)c1=O
Second: COC(=O)c1ccccc1S(=O)(=O)NC(=O)Nc1cc(C)nc(C)n1
The melting point of the first is higher: 150 °C for the first, 125 to 127 °C for the second.

First: Cc1ccccc1CC(=NC#N)NC(NC(=O)Cc1cccc2ccccc12)C(C)(C)C (stereo not drawn)
Second: CC(C)(C)OC(=O)[C@@](C)(C#N)[C@H](c1ccccc1C(F)(F)F)c1cccc2ccccc12 (racemic)
The melting point of the first is lower: 97 to 100 °C for the first, 159 to 161 °C for the second.

First: Cc1nc(-c2ccc(OCC(C)C)c(Br)c2)sc1C(=O)O
Second: CCC(=O)c1ccc(O)c(C(C)C)c1
The melting point of the first is higher: 200 to 202 °C for the first, 105 °C for the second.

First: COc1cc(C(=O)c2ccc(OCc3ccccc3)cc2N)cc(OC)c1OC
Second: COc1cc(-c2cc(O)c(SCc3ccccc3)c(=O)o2)cc(OC)c1OC
The melting point of the first is lower: 79 to 80 °C for the first, 156 to 157 °C for the second.

First: Cc1cc(OCCCC(=O)N(CCCCO)C2CCCCC2)cc(C=O)c1[N+](=O)[O-]
Second: C=CCN(CC=C)C(=O)Nc1cc(C)c(S(=O)(=O)C[N+](=O)[O-])c(C)c1
The melting point of the first is lower: 72 to 73 °C for the first, 127 to 129 °C for the second.

First: COC(=O)c1cn(-c2ncccn2)cc1C
Second: COC(=O)c1cc(=O)c2ccccc2o1
The melting point of the first is lower: 108 °C for the first, 120 to 122 °C for the second.

First: COc1c2c(c(OC)c(OC)c1OC)CC(C(=O)O)(c1ccc(OCCCC(=O)O)cc1)C2
Second: Cc1oc(-c2ccccc2)nc1CCOc1ccc(NC2SC(=O)NC2=O)cc1 (stereo not drawn)
The melting point of the first is lower: 148 to 150 °C for the first, 179 to 180 °C for the second.

First: N#CC1C(=O)NC(=O)C(C(=O)OCc2ccccc2)C12CCCCC2 (stereo not drawn)
Second: CC(C)(C)C=NNC(=O)OCc1ccccc1
The melting point of the first is higher: 153 to 156 °C for the first, 74 to 74.5 °C for the second.

Compared with `Cc1nc(C)c(-c2ccnc(Nc3ccc(NC(=O)CCl)cc3)n2)s1`, `CCOc1ccc(Nc2n[nH]c(N)c2C#N)cc1` is lower in melting point: 217 to 219 °C for the first, 166 to 167 °C for the second.

Compared with `OC12CC3CC(C1)CC(O)(C3)C2`, `C[C@@H](O)[C@H]1CC[C@H]2[C@@H]3CC=C4CC(=O)CC[C@]4(C)[C@H]3CC[C@]12C` is higher in melting point: 169 °C for the first, 171 to 175 °C for the second.

First: CCCc1ccc(C=O)n1Cc1ccc(-c2ccccc2-c2nnn[nH]2)cc1
Second: Cc1oc(-c2ccccc2Cl)nc1CCOc1ccc([N+](=O)[O-])cn1
The melting point of the first is lower: 68 to 71 °C for the first, 100 to 101 °C for the second.

Compared with `COc1cc(C=CC(=O)Nc2c(-c3ccccc3C)c3cc(Cl)c(C)cc3oc2=O)cc(OC)c1OC(C)=O`, `O=C(Cc1c(-c2ccccc2)c2cc3c(cc2oc1=O)C(=O)OC3)Nc1ccc(F)cc1C(F)(F)F` is higher in melting point: 248 to 250 °C for the first, 253 to 254 °C for the second.

Compared with `O=C(O)c1cc(-c2ccccc2Cl)c[nH]c1=O`, `Cc1cc(C)nc(OC(C)C(=O)NS(=O)(=O)c2ccccc2)n1` (stereo not drawn) is lower in melting point: 299 to 303 °C for the first, 188 °C for the second.

First: O=S1c2ccc(F)cc2CCc2ccc(CO)cc21 (stereo not drawn)
Second: COc1ccc2c(c1)CCC(c1ccc(F)cc1)C2=O (stereo not drawn)
The melting point of the first is higher: 181 to 183 °C for the first, 124 to 127 °C for the second.

First: COc1ccc(Nc2cc(N3CCCC3)nc(N3CCCC3)n2)cc1
Second: C1CCN(ON2CCCC2)C1
The melting point of the first is higher: 162 to 163 °C for the first, 99 °C for the second.

Compared with `Cc1ccc(CC(=O)NCc2cccc3c2C(=O)N(C2CCC(=O)NC2=O)C3=O)cc1F` (stereo not drawn), `O=C1c2ccccc2C(=O)N1CC(=O)N1c2ccc(Cl)cc2N(Cc2ccccc2)C(=O)[C@H]2CCC[C@H]21` (relative stereo) is higher in melting point: 148 to 150 °C for the first, 241 to 243 °C for the second.

First: Nc1nc(-c2ccc(CCCCCl)s2)cs1
Second: O=C(O)c1cc(=O)c2cccc(/C=C/c3ccc(OCCCCc4ccccc4)cc3)c2o1
The melting point of the first is lower: 99 to 100 °C for the first, 159 to 161 °C for the second.

First: Nc1nc2ccccc2n2cnc(-c3noc(C4CC4)n3)c12
Second: Nc1nc(Oc2c(Cl)cccc2Cl)nc2nc(-c3ccco3)nn12
The melting point of the first is higher: 305 to 310 °C for the first, 270 to 272 °C for the second.

First: Oc1ccc(CCn2ccn(C3CCc4ccccc4C3)c2=S)cc1O (stereo not drawn)
Second: O=C(O)C1(Cc2ccccc2)CCN(Cc2ccccc2)CC1
The melting point of the first is lower: 165 to 167 °C for the first, 262 °C for the second.

First: CCOC(=O)c1ncn2c1CNC(=O)c1cc(F)ccc1-2
Second: CCOC(=O)N1CCN(c2ccc(C3=NNC(=O)CC3C)cc2Cl)CC1 (stereo not drawn)
The melting point of the first is higher: 298 °C for the first, 154 to 156 °C for the second.

Compared with `Nc1nc2ccccc2c2c1nc(-c1ccccc1)n2CCOc1ccccc1`, `Cc1cccc(Cl)c1N1Cc2cnc(Nc3ccccc3)nc2N(c2cccc(CCN)c2)C1=O` is higher in melting point: 182 to 185 °C for the first, 192 °C for the second.

First: CN1CC2=C(n3cncc3C1)S(=O)C=C2 (stereo not drawn)
Second: CCOC(=O)c1cn(-c2ccc(C(F)(F)F)cc2)nc1C(C)C
The melting point of the first is higher: 160 to 163 °C for the first, 74 to 75 °C for the second.

First: CNC(=O)C(C)(C)OCc1cc(-c2ccc(Cl)cc2)no1
Second: CC(C)(c1ccc(O)cc1)c1ccc(O)c(Cl)c1
The melting point of the first is lower: 93 to 94 °C for the first, 106 to 107 °C for the second.

Compared with `CCCCCCCCCCCCOc1ccc(C(=O)c2ccc(Sc3ccccc3)cc2)c(O)c1`, `COCCNC(=O)c1cccc(-c2cccc3cc(Cc4ccc5c(c4)CCO5)sc23)c1` is higher in melting point: 59 to 60 °C for the first, 79 to 80 °C for the second.

First: C=CCc1oc2c(OC)cccc2c1CC(=O)OC
Second: COc1ccc2cc(CBr)ccc2c1Br
The melting point of the first is lower: 65 to 66 °C for the first, 92 to 94 °C for the second.

First: O=C(NCCN1CCCC1)N1CCN(c2ccc(F)cc2)CC1
Second: COc1nc2ccccc2cc1NC(=S)N1CCN(c2cc(F)cc(F)c2)CC1
The melting point of the first is lower: 100 to 102 °C for the first, 140 to 142 °C for the second.

First: c1ccc2cc(N3CCC4(CCNCC4)CC3)ccc2c1
Second: Cc1cc2nncn2nc1-c1ccccc1
The melting point of the first is lower: 158 to 162 °C for the first, 188 to 190 °C for the second.

First: CC#CCOc1cc(-c2ccccc2)ncn1
Second: CC1(C)OC(=O)C(Oc2ccc3ncccc3c2)=C1c1ccc(S(C)(=O)=O)cc1
The melting point of the first is lower: 59.6 °C for the first, 171 to 172 °C for the second.

First: N#CCC(=O)c1ccc[nH]1
Second: NC(Cc1cc(Cl)c(Sc2ccc(O)c(Cc3ccc(=O)[nH]c3)c2)c(Cl)c1)C(=O)O (stereo not drawn)
The melting point of the first is lower: 79 to 81 °C for the first, 261 to 264 °C for the second.

Compared with `CC(C)CCCC(C)Cc1nc2c3cc(Br)sc3c3sc(Br)cc3c2nc1CC(C)CCCC(C)C` (stereo not drawn), `CCOP(=O)(OCC)c1nc(NC(C)C)nc(NC(C)C)n1` is lower in melting point: 106 to 108 °C for the first, 91 to 94 °C for the second.

With `CN1C(=O)Cn2c(C(=O)N3CCOCC3)nnc2-c2cc(Cl)ccc21` the melting point was 200 to 201 °C.

Reference: a melting point compilation (Tetko et al.; mined from patent text by program, amines drawn as free bases though some values may be those of a salt)
